Where a SMILES comes first, the peptide text is derived from it. Bridges are numbered along the chain shown (N, C = ends). [ ]: non-standard residue; d: D form. hMet = CSCCC[C@H](N)C(=O)O
Assays:
[1] = target: T1, Nicotinic acetylcholine receptor alpha6/alpha3/beta4 (Rattus norvegicus, UniProt P04757+P12392+P43143); experiment: Antagonist activity at rat alpha6/alpha3beta4 nACHR expressed in xenopous laevis oocyte assessed as inhibition of ACh induced channel current after 5 mins at -70 mV holding potential by two electrode voltage clamp method
T1 sequence (P04757 whole entry): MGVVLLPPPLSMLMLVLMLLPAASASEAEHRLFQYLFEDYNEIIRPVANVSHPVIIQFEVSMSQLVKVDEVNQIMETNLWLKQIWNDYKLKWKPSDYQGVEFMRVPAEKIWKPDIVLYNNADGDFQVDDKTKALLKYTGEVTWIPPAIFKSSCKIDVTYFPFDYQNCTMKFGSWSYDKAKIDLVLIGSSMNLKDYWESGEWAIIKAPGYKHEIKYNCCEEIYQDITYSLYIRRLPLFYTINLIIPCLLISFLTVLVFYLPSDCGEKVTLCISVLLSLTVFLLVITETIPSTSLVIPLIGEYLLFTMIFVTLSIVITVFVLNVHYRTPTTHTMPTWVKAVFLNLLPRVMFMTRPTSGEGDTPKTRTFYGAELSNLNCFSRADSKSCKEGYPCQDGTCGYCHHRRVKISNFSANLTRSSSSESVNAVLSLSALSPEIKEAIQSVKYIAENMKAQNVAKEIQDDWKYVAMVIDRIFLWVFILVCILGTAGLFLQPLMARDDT
T1 sequence (P12392 whole entry): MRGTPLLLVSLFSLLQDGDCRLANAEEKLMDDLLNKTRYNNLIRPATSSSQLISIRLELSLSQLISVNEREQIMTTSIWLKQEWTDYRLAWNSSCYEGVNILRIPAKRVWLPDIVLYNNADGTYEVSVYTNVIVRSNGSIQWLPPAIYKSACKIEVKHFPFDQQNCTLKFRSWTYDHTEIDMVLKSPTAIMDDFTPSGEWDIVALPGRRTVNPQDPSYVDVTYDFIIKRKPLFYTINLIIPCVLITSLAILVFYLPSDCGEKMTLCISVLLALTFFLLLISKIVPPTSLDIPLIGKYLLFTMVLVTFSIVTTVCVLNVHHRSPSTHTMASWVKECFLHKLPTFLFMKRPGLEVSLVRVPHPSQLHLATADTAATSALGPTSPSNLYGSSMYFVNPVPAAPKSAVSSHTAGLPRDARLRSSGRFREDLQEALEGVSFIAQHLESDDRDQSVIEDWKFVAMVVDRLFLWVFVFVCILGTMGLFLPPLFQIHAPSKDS
T1 sequence (P43143 whole entry): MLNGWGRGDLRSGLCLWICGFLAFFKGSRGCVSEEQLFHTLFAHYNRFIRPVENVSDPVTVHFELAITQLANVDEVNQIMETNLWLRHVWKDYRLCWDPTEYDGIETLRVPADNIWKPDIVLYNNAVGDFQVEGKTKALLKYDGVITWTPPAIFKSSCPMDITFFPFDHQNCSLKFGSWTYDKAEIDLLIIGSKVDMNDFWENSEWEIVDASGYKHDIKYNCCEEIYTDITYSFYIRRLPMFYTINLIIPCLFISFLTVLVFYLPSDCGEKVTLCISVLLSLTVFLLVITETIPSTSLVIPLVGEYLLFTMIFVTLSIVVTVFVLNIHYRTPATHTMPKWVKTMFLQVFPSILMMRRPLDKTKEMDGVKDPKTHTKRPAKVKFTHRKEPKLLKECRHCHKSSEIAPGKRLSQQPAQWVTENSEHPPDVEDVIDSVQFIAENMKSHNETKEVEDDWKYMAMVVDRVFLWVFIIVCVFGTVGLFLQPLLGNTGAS

[2] = target: T2, Neuronal acetylcholine receptor; alpha3/beta4 (Rattus norvegicus, UniProt P04757+P12392); experiment: Antagonist activity at rat alpha3beta4 nACHR expressed in xenopous laevis oocyte assessed as inhibition of ACh induced channel current after 5 mins at -70 mV holding potential by two electrode voltage clamp method
T2 sequence (P04757 whole entry): as the sequence (P04757 whole entry) above
T2 sequence (P12392 whole entry): as the sequence (P12392 whole entry) above

Rattus norvegicus = organism: Rattus norvegicus; experiment: Selectivity ratio of IC50 for rat alpha6/alpha3beta4 nACHR expressed in xenopous laevis oocyte after 6 to 10 mins to IC50 for rat alpha3beta4 nACHR expressed in xenopous laevis oocyte after 6 to 10 mins
[3] = target: T2, Neuronal acetylcholine receptor; alpha3/beta4; experiment: Antagonist activity at rat alpha3beta4 nACHR expressed in xenopous laevis oocyte assessed as inhibition of ACh induced channel current after 6 to 10 mins at -70 mV holding potential by two electrode voltage clamp method
[4] = target: T1, Nicotinic acetylcholine receptor alpha6/alpha3/beta4; experiment: Antagonist activity at rat alpha6/alpha3beta4 nACHR expressed in xenopous laevis oocyte assessed as inhibition of ACh induced channel current after 6 to 10 mins at -70 mV holding potential by two electrode voltage clamp method

| Compound | IC50 [1] [nM] | IC50 [2] [nM] | Ratio IC50 (Rattus norvegicus) | IC50 [3] [nM] | IC50 [4] [nM] |
| --- | --- | --- | --- | --- | --- |
| CC[C@H](C)[C@@H]1NC(=O)[C@H](C)NC(=O)[C@H](C)NC(=O)[C@@H]2CSSC[C@H](NC(=O)CN)C(=O)N[C@@H](CSSC[C@@H](C(N)=O)NC(=O)[C@H]([C@@H](C)CC)NC(=O)[C@@H]3CCCN3C(=O)[C@H](CO)NC1=O)C(=O)N[C@@H](CO)C(=O)N[C@@H](Cc1cnc[nH]1)C(=O)N1CCC[C@H]1C(=O)N[C@@H](C(C)C)C(=O)N2 (H-GCCSHPVCAAISPIC-NH2; disulfide 2-8, 3-15) | 101 | 30.7 | – | – | – |
| CC[C@H](C)[C@@H]1NC(=O)[C@H](CCC(N)=O)NC(=O)[C@@H]2CCCN2C(=O)[C@H](CC(N)=O)NC(=O)[C@H](Cc2cnc[nH]2)NC(=O)[C@H](C(C)C)NC(=O)[C@H]([C@@H](C)O)NC(=O)[C@@H]2CSSC[C@H](NC(=O)[C@@H]3CCCN3C(=O)[C@H](CC(=O)O)NC(=O)[C@@H](N)CCCNC(=N)N)C(=O)N[C@@H](CSSC[C@@H](C(N)=O)NC1=O)C(=O)N[C@@H](CO)C(=O)N[C@@H](CC(N)=O)C(=O)N1CCC[C@H]1C(=O)N[C@@H](C(C)C)C(=O)N2 (H-RDPCCSNPVCTVHNPQIC-NH2; disulfide 4-10, 5-18) | – | – | 0.058 | – | – |
| CC[C@H](C)[C@@H]1NC(=O)[C@@H]2CCCN2C(=O)[C@H](CO)NC(=O)[C@H](CCCSC)NC(=O)[C@H](C)NC(=O)[C@H](CO)NC(=O)[C@@H]2CSSC[C@H](NC(=O)CN)C(=O)N[C@@H](CSSC[C@@H](C(N)=O)NC1=O)C(=O)N[C@@H](CO)C(=O)N[C@@H](Cc1cnc[nH]1)C(=O)N1CCC[C@H]1C(=O)N[C@@H](C)C(=O)N2 (H-GCCSHPACSA[hMet]SPIC-NH2; disulfide 2-8, 3-15) | > 10000 | > 10000 | – | – | – |
| CC[C@H](C)[C@@H]1NC(=O)[C@@H]2CCCN2C(=O)[C@H](C)NC(=O)[C@H](CCCSC)NC(=O)[C@H](C)NC(=O)[C@H](CO)NC(=O)[C@@H]2CSSC[C@H](NC(=O)CN)C(=O)N[C@@H](CSSC[C@@H](C(N)=O)NC1=O)C(=O)N[C@@H](CO)C(=O)N[C@@H](Cc1cnc[nH]1)C(=O)N1CCC[C@H]1C(=O)N[C@@H](C(C)C)C(=O)N2 (H-GCCSHPVCSA[hMet]APIC-NH2; disulfide 2-8, 3-15) | 39.3 | 17.4 | – | – | – |
| CC[C@H](C)[C@@H]1NC(=O)[C@H](CCC(N)=O)NC(=O)[C@@H]2CCCN2C(=O)[C@H](CC(N)=O)NC(=O)[C@H](Cc2cnc[nH]2)NC(=O)[C@H](C(C)C)NC(=O)[C@H]([C@@H](C)O)NC(=O)[C@@H]2CSSC[C@H](NC(=O)[C@@H]3CCCN3C(=O)[C@H](CC(=O)O)NC(=O)[C@@H](N)CCCN=C(N)N)C(=O)N[C@@H](CSSC[C@@H](C(N)=O)NC1=O)C(=O)N[C@@H](CO)C(=O)N[C@@H](CC(N)=O)C(=O)N1CCC[C@H]1C(=O)N[C@@H](C(C)C)C(=O)N2 (H-RDPCCSNPVCTVHNPQIC-NH2; disulfide 4-10, 5-18) | – | – | – | 518 | 30 |

Reference: ChEMBL document CHEMBL4011630 (J Med Chem, 2017)
